Data on one sequence can be found in article PMC7602804 (Nutrients, 2020).

The data set has as its system porcine brain endothelial cell (PBEC) monolayers. Kind of data set: Apical to basolateral transport of milk peptides across porcine brain endothelial cell (PBEC) monolayers, blood-brain barrier model. In kind it is in vitro ADME. Conditions: 2.5 h. How it is done:
Capillaries were isolated from the brain cortices of domestic pigs 5–6 months old as previously described. PBECs were cultured by plating the capillaries in T75 flasks coated with collagen IV (500 µg/mL) and fibronectin (100 µg/mL) in DMEM-F12 medium, supplemented with 10% plasma-derived serum (First Link, Wolverhampton, UK), heparin (15 U), 100 units/mL of penicillin and 100 µg/mL of streptomycin (PBEC growth medium), and cultured in an incubator with humidified 5% CO2/95% air at 37 °C. Puromycin (4 µg/mL) was added to the growth medium for the first three days to obtain a pure culture of PBECs.
Astrocyte conditioned medium was collected every third day from primary rat astrocytes, sterile filtered and frozen until use. Isolation of primary rat astrocytes and preparation of astrocyte conditioned media were carried out as described in [20].
PBECs were grown until 70–80% confluency as described above and then passaged onto polyester culture inserts with a pore size of 0.4 μm and a growth area of 1.12 cm^2 (Costar, Corning, NY, USA) at a density of 1.1 × 10^5 cells/cm^2 in the PBEC growth medium. In the basolateral chamber, the medium consisted of 1 mL of PBEC growth medium and 0.5 mL of astrocyte conditioned medium. The medium was supplemented with differentiation factors: 550 nM of hydrocortisone, 250 μM of 8-(4-chlorophenylthio)adenosine-3′,5′-cyclic monophosphate (cAMP) and 17.5 μM of RO-201724 two days after seeding. The next day, the integrity of the PBEC monolayer was confirmed by measuring the TEER. Only PBEC monolayers with TEER values higher than 800 Ω cm^2 were used for the transport analysis.
Following the TEER value measurement, the Caco-2 and PBEC monolayers were gently washed twice with phosphate-buffered saline, and the transport medium (Hanks’ Balanced Salt solution supplemented with 10 mM of HEPES) was added to the apical and basolateral compartments. The inserts were incubated for 15 min or 2.5 h with the purified milk peptides (0.1 mg/mL) or the synthetic PIGSENSEKTTMPLW peptide (2 µg/mL), after which medium from the apical and basolateral compartments were collected for liquid chromatography tandem mass spectrometry (LC-MS/MS) analysis. Inserts incubated with a medium without peptides served as the control in the transport experiments. Membrane integrity was validated by addition of D-[1-^14C]-Mannitol (3.5 µM, 56.8 mCi/mmol) (Perkin Elmer, Waltham, MA, USA) to the upper chamber of the culture inserts with or without milk peptides for 2.5 h. The passive permeability experiments were performed on four or five individual culture inserts. Basolateral samples were mixed with Ultima Gold liquid scintillation fluid (Perkin Elmer) and counted in a Tri-Carb 2810 TR scintillation counter (Perkin Elmer). The apparent permeability coefficient (Papp, cm/s) was determined as Papp = (dQ/dt)/(AC0) where dQ/dt is the steady state flux (cpm/s), A is the surface area of the cell culture insert membrane and C0 is the initial concentration in the apical compartment (cpm/mL).
LC-MS/MS analysis was performed on a TripleTOF 6600 mass spectrometer equipped with an Exigent nanoLC 415 system (AB Sciex, Les Ulis, France). All samples were micro-purified using 3 M Empore C18 discs packed in pipette tips. The lyophilized samples were dissolved in 0.1% formic acid, injected on a trap column (2 cm × 100 µm inner diameter) and separated on an analytical column packed in-house in a pulled emitter (15 cm × 75 µm inner diameter). All columns were packed with ReproSil-Pur C18-AQ 3 µm resin (courtesy of Dr. Marisch, Ammerbuch-Entringen, Germany). […]

No end group written: not given here.

Take PIGSENSEKTTMPLW [PIGSENSEKTTMPLW]: the “Peptide identified in the basal compartment (brain side) of the PBEC BBB model (transported)” value (primary PBEC on polyester inserts 0.4 μm, astrocyte conditioned medium, TEER higher than 800 Ω cm^2, A-B, mix of 192 milk peptides 0.1 mg/mL apical, HBSS + 10 mM HEPES, LC-MS/MS, five independent studies, αS1 peptide 'or' its truncated peptides stated collectively) is “identified in all experiments”. Moreover, the “Fate of synthetic peptide during transport over PBEC monolayers” value (synthetic peptide 2 µg/mL apical, LC-MS/MS of basal medium) is reported as “cleaved by carboxypeptidases during the transport”.
